From patent publication US7999137B2, “Pesticide bi-phenyl-amidine derivatives” (Bayer Cropscience AG, priority 2006, dated 2011)
Where two headings read alike, the source gives them in different places.

Experiment: logP by HPLC on reversed-phase column (C 18), EEC Directive 79/831 Annex V.A8
Format: physicochemical
Settings: 40° C., 0.1% aqueous formic acid and acetonitrile; for chromatographic logP: reversed-phase HPLC column (C 18)
Procedure: Temperature: 40° C.; Mobile phases: 0.1% aqueous formic acid and acetonitrile; linear gradient from 10% acetonitrile to 90% acetonitrile.
Calibration was carried out using unbranched alkan-2-ones (comprising 3 to 16 carbon atoms) with known logP values (determination of the logP values by the retention times using linear interpolation between two successive alkanones).

[1] = HPLC reversed-phase C 18, linear gradient 10% to 90% acetonitrile

Row | SMILES | log p (HCOOH) [1] | other results
1 | CCN(C)C=Nc1cc(C)c(-c2ccc(C(C)C)cc2)cc1C [Compound 155] | 2.34 | –
2 | CCN(C)C=Nc1ccc(-c2ccc(OCc3ccccc3)cc2)cc1C(F)(F)F [Compound 91] | 2.43 | –
3 | CCc1cc(-c2ccc(Cl)cc2Cl)ccc1N=CN(C)CC [Compound 57] | 2.26 | –
4 | CCc1cc(-c2ccc(OC)c(OC)c2)ccc1N=CN(C)CC [Compound 62] | 1.68 | –
5 | CCN(C)C=Nc1ccc(-c2ccc(F)cc2)cc1C(F)(F)F [Compound 14] | 1.93 | –
6 | CCc1cc(-c2cc(OC)c(OC)c(OC)c2)ccc1N=CN(C)CC [Compound 50] | 1.69 | –
7 | CCN(C)C=Nc1cc(C)c(-c2ccc(C(C)=NOC)cc2)cc1C [Compound 42] | 2.24 | –
8 | CCN(C)C=Nc1ccc(-c2ccc(F)c(F)c2)cc1C [Compound 34] | 1.89 | –
9 | CCCN(C)C=Nc1cc(C)c(-c2ccc(C(C)C)cc2)cc1C [Compound 156] | 2.70 | –
10 | CCN(C)C=Nc1cc(C)c(-c2ccc(Cl)c(C(F)(F)F)c2)cc1C [Compound 17] | 2.40 | –
11 | CCN(C)C=Nc1cc(C)c(-c2ccc(Cl)c(F)c2)cc1C [Compound 41] | 2.32 | –
12 | Cc1cc(-c2ccc(C(C)(C)C)cc2)c(C)cc1N=CN1CCCC1 [Compound 119] | 2.79 | –
13 | Cc1cc(-c2ccc(C(C)(C)C)cc2)c(C)cc1N=C1CCCCN1 [Compound 121, 4′-tert-butyl-2,5-dimethyl-N-[piperidin-2-ylidene]biphenyl-4-amine] | – | chromatographic logP (HPLC reversed-phase C 18, linear gradient 10% to 90% acetonitrile, read-out: log p (HCOOH)): 2.6; chromatographic logP (pH 2.3, HPLC, read-out: log P (pH 2.3)): 2.6
14 | CCc1cc(-c2ccc(Cl)c(F)c2)ccc1N=CN(C)CC [Compound 52] | 2.31 | –
15 | CCN(C)C=Nc1cc(C)c(-c2ccc(C3CCCCC3)cc2)cc1C [Compound 165] | 3.18 | –
16 | CCN(C)C=Nc1cc(C)c(-c2ccc(C)c(Cl)c2)cc1C [Compound 146] | 2.37 | –
17 | Cc1cc(-c2ccc(C(C)(C)C)cc2)c(C)cc1N=CN1CCOCC1 [Compound 118] | 2.53 | –
18 | CCN(C)C=Nc1ccc(-c2ccc(C(C)=NOC)cc2)cc1C(F)(F)F [Compound 78] | 2.24 | –
19 | Cc1cc(-c2ccc(C(F)(F)F)c(Cl)c2)c(C)cc1N=CN1CCCCC1 [Compound 145] | 2.78 | –

Row | SMILES | log p (HCOOH) [1] | other results
20 | Cc1ccc(-c2cc(C)c(N=CN3CCCCC3)cc2C)cc1Cl [Compound 149] | 2.53 | –
21 | CCN(C)C=Nc1ccc(-c2ccc(C(F)(F)F)cc2)cc1C(F)(F)F [Compound 25] | 2.54 | –
22 | CCN(C)C=Nc1cc(C)c(-c2ccc(Cl)cc2)cc1C [Compound 125] | 2.18 | –
23 | CCN(C)C=Nc1cc(C)c(-c2cccc(Cl)c2)cc1C [Compound 133] | 2.15 | –
24 | CCc1cc(-c2ccc(F)c(Cl)c2)ccc1N=CN(C)CC [Compound 10] | 2.17 | –
25 | CCN(C)C=Nc1ccc(-c2ccc(F)c(Cl)c2)cc1C [Compound 5] | 2.00 | –
26 | CCN(C)C=Nc1cc(C)c(-c2ccc(C#N)cc2)cc1C [Compound 136] | 1.54 | –
27 | CCN(C)C=Nc1cc(C)c(-c2ccc(Br)cc2)cc1C [Compound 175] | 2.20 | –
28 | COc1cc(-c2ccc(C)cc2)c(OC)cc1N=CN(C)C(C)C [Compound 103] | 2.01 | –
29 | CCN(C)C=Nc1cc(C)c(-c2ccc(OC(C)C)cc2)cc1C [Compound 170] | 2.18 | –
30 | CCN(C)C=Nc1ccc(-c2ccc(F)cc2)cc1C [Compound 126] | 1.84 | –
31 | CCc1cc(-c2ccc(F)cc2)ccc1N=CN(C)CC [Compound 23] | 1.79 | –
32 | CCN(C)C=Nc1ccc(-c2ccc(Cl)c(Cl)c2)cc1C(F)(F)F [Compound 81] | 2.57 | –
33 | CCc1cc(-c2ccc(C(C)=NOC)cc2)ccc1N=CN(C)CC [Compound 53] | 2.19 | –
34 | CCN(C)C=Nc1ccc(-c2ccc(OCc3ccccc3)cc2)cc1F [Compound 92] | 2.27 | –
35 | CCN(C)C=Nc1ccc(-c2cc(OC)c(OC)c(OC)c2)cc1C [Compound 29] | 1.56 | –
36 | CCN(C)C=Nc1ccc(-c2cc(OC)c(OC)c(OC)c2)cc1C(F)(F)F [Compound 75] | 1.79 | –
37 | CCN(C)C=Nc1cc(C)c(-c2ccc(C(C)(CC)OC)cc2)cc1C (stereo not drawn) [Compound 159] | 2.38 | –
38 | CCCN(C)C=Nc1cc(C)c(-c2ccc(C)c(Cl)c2)cc1C [Compound 147] | 2.56 | –

Row | SMILES | log p (HCOOH) [1] | other results
39 | CCN(C)C=Nc1cc(C)c(-c2ccc(F)c(F)c2F)cc1C [Compound 43] | 2.32 | –
40 | CCc1cc(-c2ccc(OCc3ccccc3)cc2)ccc1N=CN(C)CC [Compound 60] | 2.39 | –
41 | CCN(C)C=Nc1cc(C)c(-c2ccc(CC(C)C)cc2)cc1C [Compound 162] | 2.84 | –
42 | CCN(C)C=Nc1cc(C)c(-c2ccc(Cl)c(C(F)(F)F)c2)cc1Cl [Compound 107] | 2.30 | –
43 | CCN(C)C=Nc1cc(C#N)c(-c2ccc(C(C)(C)C)cc2)cc1C [Compound 177] | 2.21 | –
44 | CCN(C)C=Nc1ccc(-c2ccc(Oc3ccccc3)cc2)cc1F [Compound 90] | 2.20 | –
45 | CCN(C)C=Nc1cc(OC)c(-c2ccc(OC)c(Cl)c2)cc1OC [Compound 97] | 1.83 | –
46 | CCN(C)C=Nc1ccc(-c2ccc(F)c(C)c2)cc1C [Compound 33] | 2.04 | –
47 | CCN(C)C=Nc1ccc(-c2ccc(Oc3ccccc3)cc2)cc1C [Compound 35] | 2.41 | –
48 | Cc1cc(-c2ccc(C(C)(C)C)cc2)c(C)cc1N=C1CCCN1 [Compound 120] | 2.53 | –
49 | CCN(C)C=Nc1ccc(-c2ccc(OC)cc2)cc1C(F)(F)F [Compound 87] | 1.78 | –
50 | CCN(C)C=Nc1cc(OC)c(-c2ccc(C)cc2)cc1OC [Compound 98] | 1.89 | –
51 | CCN(C)C=Nc1cc(C)c(-c2ccc(F)c(C)c2)cc1C [Compound 45] | 2.08 | –
52 | CCN(C)C=Nc1cc(C)c(-c2ccc(C[Si](C)(C)C)cc2)cc1C [Compound 166] | 3.18 | –
53 | CCN(C)C=Nc1ccc(-c2ccc(Cl)cc2Cl)cc1C(F)(F)F [Compound 85] | 2.39 | –
54 | CCN(C)C=Nc1ccc(-c2ccc(F)c(Cl)c2)cc1C(F)(F)F [Compound 4] | 2.36 | –
55 | CCN(C)C=Nc1cc(C)c(-c2ccc(C(C)(C)C)c(Br)c2)cc1C [Compound 164] | 3.13 | –
56 | CCN(C)C=Nc1ccc(-c2ccc(F)c(F)c2)cc1F [Compound 84] | 1.68 | –
